≈ marks a conversion by molar mass, not a printed value. Like-named read-outs stand apart in the source and are kept apart here.
Key:
[1] = molecular target: T1, undecaprenyl diphosphate synthase derived from Staphylococcus aureus (Staphylococcus aureus, UniProt P60477); test: Inhibitory effect on undecaprenyl diphosphate synthase (phosphate release, Amplex Red fluorescence); type: biochemical
T1 construct: made in house; host or cells: E. coli BL21 (DE3), T7 promoter, IPTG induction; unpurified cell-free extract (100,000 x g supernatant)
Procedure: (1) Inhibitory effect on the undecaprenyl diphosphate synthase derived from Staphylococcus aureus
The test on the activity of undecaprenyl diphosphate synthase was determined following a method of LI et al. (J. Biomol. Screen., vol. 8, pages 712-715, 2003) with partial changes. […]
The measurement of the activity of undecaprenyl diphosphate synthase was conducted as follows: the FKI-3368 substance was added to a buffer solution B (100 mM Tris-HCl buffer solution (pH 7.5), 50 mM potassium chloride, 0.5 mM magnesium chloride, 0.5 μM farnesyl diphosphate, 3.5 μM isopentenyl diphosphate, […] inorganic pyrophosphatase) so that 90 μL in total volume might be respectively put in each well of a 96-well microplate. […] In order to quantify the released phosphate, 100 μL of a solution C (0.5M Tris-HCl buffer solution (pH 8.8), 1.5 mM inosine, 50 μM Amplex™ Red, 0.02 U nucleoside phosphorylase, 1 U peroxidase, 0.4 U xanthine oxidase) was added to each well and after reaction was performed at room temperature for 40 minutes, fluorescence intensity was measured under the conditions of an excitation wavelength at 544 nm and a measurement wavelength at 590 nm.
The addition amount of […] and the intensity of fluorescence (F.I.) measured in a reaction liquid without the addition thereof were applied to the following expression and the inhibition % was calculated: […]

[2] = tested on: Aspergillus niger ATCC 9642; test: MIC by agar dilution; type: cell-based; conditions: ATCC9642; Aspergillus niger ATCC 9642, 27° C. for 40 hours
Procedure: (§1) The measurement of the minimal inhibitory concentration (MIC) for various microbes of the FKI-3368-I substance of the present invention was performed by the following method. An ethanol solution of the FKI-3368-I substance was subjected to 2-fold dilution from the concentration of 1,000 μg/ml to prepare 14 stage diluted solutions (1,000 μg/ml, 500 μg/ml, 250 μg/ml, 125 μg/ml, 62.5 μg/ml, 31.3 μg/ml, 15.6 μg/ml, 7.8 μg/ml, 3.9 μg/ml, 2 μg/ml, 1 μg/ml, 0.5 μg/ml, 0.24 μg/ml and 0.12 μg/ml). After 1 ml each of the respective diluted solutions was placed on a round shape dish (90 mm (diameter)×20 mm, produced by IWAKI Co., Ltd.), 9 ml of a culture medium-N for sensitivity disc (for bacteria; produced by Nissui Pharmaceutical Co., Ltd.) or Sabouraud glucose agar (for yeast or mold; produced by Nihon Pharmaceutical Co., Ltd.) was added thereto to form plate media. The test microbes had been incubated in advance in Muller Hinton culture media (for bacteria; produced by Nissui Pharmaceutical Co., Ltd.) or potato dextrose agar media (for yeast or mold; produced by Nissui Pharmaceutical Co., Ltd.). On the very date when the test was performed, the resultant microbe suspensions were diluted with an Muller Hinton culture medium or a potato dextrose culture medium and a platinum loop thereof was streak-smeared on the plate media. These streak-smeared plate media was incubated at 37° C. for 18 hours (for bacteria) or at 27° C. for 40 hours (for yeast and mold) and MIC was determined.

[3] = tested on: Bacillus subtilis ATCC 6633; test: MIC by agar dilution; type: cell-based; conditions: ATCC6633; Bacillus subtilis ATCC 6633, 37° C. for 18 hours
Procedure: as §1

[4] = tested on: Candida albicans ATCC 64550; test: MIC by agar dilution; type: cell-based; conditions: ATCC64550, 40 h
Procedure: as §1

Escherichia coli NIHJ = test: MIC by agar dilution; type: cell-based; conditions: 37° C. for 18 hours
Procedure: as §1

[5] = tested on: Klebsiella pneumoniae ATCC 10031; test: MIC by agar dilution; type: cell-based; conditions: ATCC10031; Klebsiella pneumoniae ATCC 10031, 37° C. for 18 hours
Procedure: as §1

MRSA K24 = test: MIC by agar dilution; type: cell-based; conditions: Staphylococcus aureus, 18 h
Procedure: as §1

[6] = tested on: Micrococcus luteus ATCC 9341; test: MIC by agar dilution; type: cell-based; conditions: ATCC9341; Micrococcus luteus ATCC 9341, 37° C. for 18 hours
Procedure: as §1

Mucor racemosus IFO 4581 = test: MIC by agar dilution; type: cell-based; conditions: IFO4581; Mucor racemosus IFO 4581, 27° C. for 40 hours
Procedure: as §1

[7] = tested on: Mycobaderium smegmatis ATCC 607; test: MIC by agar dilution; type: cell-based; conditions: 18 h
Procedure: as §1

[8] = tested on: Penicillium chrysogenam IAM 12842; test: MIC by agar dilution; type: cell-based; conditions: IAM12842, 40 h
Procedure: as §1

[9] = tested on: Pseudomonas aeruginosa IFO 3080; test: MIC by agar dilution; type: cell-based; conditions: IFO3080; Pseudomonas aeruginosa IFO 3080, 37° C. for 18 hours
Procedure: as §1

[10] = tested on: Saccharomyces cerevisiae ATCC 9763; test: MIC by agar dilution; type: cell-based; conditions: ATCC9763; Saccharomyces cerevisiae ATCC 9763, 27° C. for 40 hours
Procedure: as §1

[11] = tested on: Serratia marcescens IAM 1021; test: MIC by agar dilution; type: cell-based; conditions: IAM1021; Serratia marcescens IAM 1021, 37° C. for 18 hours
Procedure: as §1

[12] = tested on: Staphylococcus aureus ATCC 6538P; test: MIC by agar dilution; type: cell-based; conditions: ATCC6538P, 37° C. for 18 hours
Procedure: as §1

Solubility in solvents = type: physicochemical
[13] = methanol, ethanol, acetonitrile, ethyl acetate, chloroform and dimethylsulfoxide

T1 sequence (P60477 whole entry): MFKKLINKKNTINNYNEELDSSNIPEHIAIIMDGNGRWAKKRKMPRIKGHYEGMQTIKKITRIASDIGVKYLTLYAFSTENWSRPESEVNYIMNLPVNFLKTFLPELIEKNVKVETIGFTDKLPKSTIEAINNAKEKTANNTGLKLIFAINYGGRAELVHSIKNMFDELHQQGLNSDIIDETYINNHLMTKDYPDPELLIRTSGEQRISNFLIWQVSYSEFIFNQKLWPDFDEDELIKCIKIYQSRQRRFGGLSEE

| SMILES | IC50 ([1]; cell-free extract of transformed E. Coli as enzyme source, 37° C., 20 minutes, read-out: concentration at which the undecaprenyl diphosphate synthase activity was inhibited to 50% (IC50)) | MIC [2] | MIC [3] | MIC [4] | MIC (Escherichia coli NIHJ) | MIC [5] | MIC (MRSA K24) | MIC [6] | MIC (Mucor racemosus IFO 4581) | MIC [7] | MIC [8] | MIC [9] | MIC [10] | MIC [11] | MIC [12] | Solubility in solvents (Solubility in solvents; [13]) | Solubility in solvents (Solubility in solvents; water) | IC50 [1] |
| --- | --- | --- | --- | --- | --- | --- | --- | --- | --- | --- | --- | --- | --- | --- | --- | --- | --- | --- |
| COc1cc(O)c2c(O)c3c(c4c2c1C1(C4)C(C)=CCCC1(C)C)C(O)C1(O)CC(O)=C(C(N)=O)C(=O)C1(O)C3=O (centres unmarked) [FKI-3368-1] | 4 µM | 12.5 µg/mL (≈ 22.1 µM) | 0.4 µg/mL (≈ 0.707 µM) | 6.25 µg/mL (≈ 11.1 µM) | > 100 µg/mL | > 100 µg/mL | 0.78 µg/mL (≈ 1.38 µM) | 1.56 µg/mL (≈ 2.76 µM) | 25 µg/mL (≈ 44.2 µM) | > 100 µg/mL | 6.25 µg/mL (≈ 11.1 µM) | > 100 µg/mL | 12.5 µg/mL (≈ 22.1 µM) | > 100 µg/mL | 0.78 µg/mL (≈ 1.38 µM) | Soluble | indissoluble |  |
| COc1cc(O)c2c(O)c3c(c4c2c1C1(C4)C(C)=CCCC1(C)C)C(O)C1(O)CC(O)=C(C(C)=O)C(=O)C1(O)C3=O (centres unmarked) [FKI-3368-2] |  |  |  |  |  |  |  |  |  |  |  |  |  |  |  | Soluble | indissoluble | 10 µM |
